Reference: patent US20100311714A1, “1H-IMIDAZO[4,5-c]QUINOLINONE COMPOUNDS” (priority 2009, published 2010)
pIC50: −log10 of the molar value.

What was measured:
[1] = Parallel Artificial Membrane Permeability Assay (PAMPA) at pH 6.8; assay type: physicochemical
Procedure, shortened: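 PAMPA permeability measured at pH 6.8 following the Wohnsland and Faller method; value reported as log Pe.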

[2] = tested on: PKB Ser473 phosphorylation in Rat1-myr-HA-p110 beta cells; assay: Reverse protein array, PKB Ser473 phosphorylation in Rat1-myr-HA-p110 beta cells; assay type: cell-based; conditions: Rattus norvegicus, 0.5 h, 30 minutes compound incubation, read-out: p-PKB/IC50_beta

| HT-Perm logPe pH6.8 [1] | pIC50 [2] | HT-perm/logPe pH6.8 [1] | Compound |
| --- | --- | --- | --- |
| −4.2 | > 8.34 | – | Cc1nc(N(C)CCO)ccc1-n1c(=O)n(C)c2cnc3ccc(-c4cnc(N)c(C(F)(F)F)c4)cc3c21 [Example 26.1, 8-(6-Amino-5-trifluoromethyl-pyridin-3-yl)-1-{6-[(2-hydroxy-ethyl)-methyl-amino]-2-methyl-pyridin-3-yl}-3-methyl-1,3-dihydro-imidazo[4,5-c]quinolin-2-one] |
| −5.8 | 8.24 | – | CCNc1cc(-c2ccc3ncc4c(c3c2)n(-c2cccnc2C)c(=O)n4C)cnc1CO [Example 2.31, 8-(5-Ethylamino-6-hydroxymethyl-pyridin-3-yl)-3-methyl-1-(2-methyl-pyridin-3-yl)-1,3-dihydro-imidazo[4,5-c]quinolin-2-one] |
| – | 7.70 | −3.3 | COc1ccc(-c2ccc3ncc4c(c3c2)n(-c2cccnc2C)c(=O)n4C)cn1 [Example 2.12, 8-(6-Methoxy-pyridin-3-yl)-3-methyl-1-(2-methyl-pyridin-3-yl)-1,3-dihydro-imidazo[4,5-c]quinolin-2-one] |
| – | 6.28 | −4.7 | CNc1ncc(-c2ccc3ncc4c(c3c2)n(-c2ncccc2C)c(=O)n4C)cn1 [Example 3.4, 3-Methyl-8-(2-methylamino-pyrimidin-5-yl)-1-(3-methyl-pyridin-2-yl)-1,3-dihydro-imidazo[4,5-c]quinolin-2-one] |
| −5.1 | 7.44 | – | COC1CCN(c2ccc(-n3c(=O)n(C)c4cnc5ccc(-c6cncc(C(C)(C)O)c6)cc5c43)c(C)n2)C1 (centres unmarked) [Example 28.1, 8-[5-(1-Hydroxy-1-methyl-ethyl)-pyridin-3-yl]-1-[6-(3-methoxy-pyrrolidin-1-yl)-2-methyl-pyridin-3-yl]-3-methyl-1,3-dihydro-imidazo[4,5-c]quinolin-2-one] |
| – | 7.00 | −3.7 | Cc1ncccc1-n1c(=O)n(C)c2cnc3ccc(-c4cnc(N(C)C)nc4)cc3c21 [Example 2.15, 8-(2-Dimethylamino-pyrimidin-5-yl)-3-methyl-1-(2-methyl-pyridin-3-yl)-1,3-dihydro-imidazo[4,5-c]quinolin-2-one] |
| −3.9 | 7.90 | – | CNc1ncc(-c2ccc3ncc4c(c3c2)n(-c2ccc(N3CC(F)(F)C3)nc2C)c(=O)n4C)cn1 [Example 24.1, 1-[6-(3,3-Difluoro-azetidin-1-yl)-2-methyl-pyridin-3-yl]-3-methyl-8-(2-methylamino-pyrimidin-5-yl)-1,3-dihydro-imidazo[4,5-c]quinolin-2-one] |
| −3.8 | 7.01 | – | CCOc1cc(-c2ccc3ncc4c(c3c2)n(-c2ccc(N3CCC3)nc2C)c(=O)n4C)cnc1COC [Example 23.5, 1-(6-Azetidin-1-yl-2-methyl-pyridin-3-yl)-8-(5-ethoxy-6-methoxymethyl-pyridin-3-yl)-3-methyl-1,3-dihydro-imidazo[4,5-c]quinolin-2-one] |
| −5.3 | 7.10 | – | COc1ncc(-c2ccc3ncc4c(c3c2)n(-c2ccc(N3CC[C@H](O)C3)nc2C)c(=O)n4C)c(OC)n1 [Example 32.3, 8-(2,4-Dimethoxy-pyrimidin-5-yl)-1-[6-((S)-3-hydroxy-pyrrolidin-1-yl)-2-methyl-pyridin-3-yl]-3-methyl-1,3-dihydro-imidazo[4,5-c]quinolin-2-one] |
| – | 7.87 | −3.8 | Cc1nc(F)ccc1-n1c(=O)n(C)c2cnc3ccc(-c4cnc(N)c(C(F)(F)F)c4)cc3c21 [Example 7.1, 8-(6-Amino-5-trifluoromethyl-pyridin-3-yl)-1-(6-fluoro-2-methyl-pyridin-3-yl)-3-methyl-1,3-dihydro-imidazo[4,5-c]quinolin-2-one] |
| −5 | 7.64 | – | Cc1nc(N2CCC2)ccc1-n1c(=O)n(C)c2cnc3ccc(-c4cncc(C(C)(C)O)c4)cc3c21 [Example 23.3, 1-(6-Azetidin-1-yl-2-methyl-pyridin-3-yl)-8-[5-(1-hydroxy-1-methyl-ethyl)-pyridin-3-yl]-3-methyl-1,3-dihydro-imidazo[4,5-c]quinolin-2-one] |
| −5.3 | 8.13 | – | CNc1cncc(-c2ccc3ncc4c(c3c2)n(-c2cccnc2C)c(=O)n4C)c1 [Example 2.26, 3-Methyl-8-(5-methylamino-pyridin-3-yl)-1-(2-methyl-pyridin-3-yl)-1,3-dihydro-imidazo[4,5-c]quinolin-2-one] |
| −5.3 | 6.61 | – | COc1cc(-c2ccc3ncc4c(c3c2)n(-c2cccnc2C)c(=O)n4C)cnc1C(OC)OC [Example 2.27, 8-(6-Dimethoxymethyl-5-methoxy-pyridin-3-yl)-3-methyl-1-(2-methyl-pyridin-3-yl)-1,3-dihydro-imidazo[4,5-c]quinolin-2-one] |
